Data: patent publication US20060241108A1, “Substituted phenoxazines and acridones as inhibitors of AKT” (St. Jude Children's Research Hospital, priority 2005, published 2006)

Tests used:
AKT = experiment: Inhibition of IGF-I stimulated AKT phosphorylation (Ser473) in Rh1 cells, Western blot; type: cell-based, human; conditions: for inhibition of AKT phosphorylation: 2.5 μM, Rh1 cells serum free, IGF-I; for Inhibition (phosphorylation of AKT at Ser 473): 5 μM, 1 hour, serum starved Rh1 cells, IGF-I 10 ng/ml 10 minutes, average of two experiments
Experimental: (§1) Cell lines and growth conditions. The human cell lines Rh1, Rh18, and Rh30 (ATCC Deposit # CRL 2061) have been described, e.g., by Hazelton et al. Cancer Res 1987;47:4501-4507 and Hosoi et al. Cancer Res. 1999;59:886-894. Rh1, Rh18 and Rh30 cells can each be grown in antibiotic free RPMI-1640 medium (available from BioWhittaker, Walkersville, Md.), supplemented with 10% fetal bovine serum (available from HyClone Laboratories, Logan, Utah) and 2 mM L-glutamine (available from BioWhittaker, Walkersville, Md.) at 37° C. in an atmosphere of 5% CO2. For serum free experiments, cells can be cultured in modified N2E (MN2E) medium (DMEM/F-12, 1:1 mixture) (Sigma, St. Louis, Mo.) supplemented with 1 μg/ml human holo transferrin, 30 nM sodium selenite, 20 nM progesterone, 100 μM putrescine, 30 nM vitamin E phosphate, and 50 μM ethanolamine. Cells in MN2E medium containing 5 μg/ml bovine fibronectin (available from Sigma, St. Louis, Mo.) are preferably plated, and allowed to attach overnight at 37° C. in a humidified, 5% CO2 atmosphere.
(§2) Cellular screening for inhibitors. Rh1, Rh18 and Rh30 cells can each be seeded at a density of 4×10^6/10-cm plate in serum-free medium for overnight attachment. The cells can then be exposed to 0.1% DMSO or to a test compound (for example, a phenoxazine or acridone compound) for one hour, then stimulated with Insulin-like growth factor-I (IGF-I) (10 ng/ml) for 10 minutes.
(§3) Western blot analysis. Cells are rapidly washed with ice-cold phosphate-buffered saline (PBS), placed on ice, and lysed in mammalian protein extraction reagent (M-PER; available from Pierce, Rockford, Ill.) containing one Complete™ mini protease inhibitor tablet (available from Boehringer Mannheim, Mannheim, Germany), 1 mM phenylmethylsulfonyl fluoride, 1 mM Na3VO4 and 1 mM NaF. Cellular debris is pelleted by centrifugation at 17,500×g for 10 minutes at 4° C. The protein concentration of the supernatants is measured by the bicinchoninic acid assay (e.g., using the BCA™ Protein Assay Kit, Pierce, Rockford, Ill., catalog number 23225 or 23227) using bovine serum albumin as the standard.
For the analysis of AKT, ERK-1/2, mTOR, p70S6 kinase, ribosomal protein S6 (rpS6 or S6), and glycogen synthase kinase 3 (GSK-3), equivalent amounts of protein can be separated on a 12% SDS-polyacrylamide gel (available from BioRad, Hercules, Calif.) by electrophoresis and subsequently transferred to a nitrocellulose membrane (also available from BioRad). After a 1 hour incubation in 1×TBS containing 0.05% Tween 20 and 5% blocking reagent (skim milk) (available from Upstate Biotechnology, Lake Placid, N.Y.) at room temperature, the wet nitrocellulose membranes are incubated with appropriate antibodies (available from Cell Signaling Technology, Beverly, Mass.): rabbit polyclonal antiserum specific for the phosphorylated Ser473 or Thr308 of AKT (dilution 1:1000); rabbit polyclonal antiserum specific for phosphorylated Thr202/Tyr204 of ERK-1/2 (dilution 1:1000); rabbit polyclonal antiserum specific for phosphorylated Ser2448 or Ser2481 of mTOR (dilution 1:1000); rabbit polyclonal antiserum specific for phosphorylated Thr389 of p70S6 kinase (dilution 1:4000); rabbit polyclonal antiserum specific for phosphorylated Ser235/236 of rpS6 (dilution 1:1000); or rabbit polyclonal antiserum specific for phosphorylated Ser21/9 of GSK-3α/β (dilution 1:1000). Horseradish peroxidase-conjugated goat anti-rabbit IgG antibody (dilution 1:10,000) can be used as the secondary antibody. Immunoreactive protein can be visualized using Renaissance chemiluminescence reagent (available from Life Science Products Inc., Boston, Mass.).
For these assays, Rh1 cells are seeded in serum-free medium for overnight attachment. The serum starved Rh1 cells are then exposed to 1-5 μM of a compound in Table I for 1 hour before stimulating with IGF-I (10 ng/ml) for 10 minutes. […]

[1] = tested on: mTOR (Ser2448 and Ser2481), rpS6 (Ser235/236) and p70S6 kinase (Thr389); experiment: IGF-I induced phosphorylation of AKT downstream targets in Rh1 cells, Western blot; type: cell-based, human; conditions: 3.5 to 5.0 μM, 1 hour, Rh1 cells serum-free, IGF-I 10 minutes
Experimental: as §2, §3
For the analysis of AKT, ERK-1/2, mTOR, p70S6 kinase, ribosomal protein S6 (rpS6 or S6), and glycogen synthase kinase 3 (GSK-3), equivalent amounts of protein can be separated on a 12% SDS-polyacrylamide gel (available from BioRad, Hercules, Calif.) by electrophoresis and subsequently transferred to a nitrocellulose membrane (also available from BioRad). […]

[2] = target: T1, recombinant p-110 gamma enzyme (Homo sapiens, UniProt P48736); experiment: PI 3-kinase assay in vitro; type: biochemical; conditions: 5 μM; phosphatidylinositol substrate, [γ32P]-ATP, TLC
T1 construct: purchased AG Scientific, San Diego, Calif
T1 sequence (P48736 whole entry, species assumed): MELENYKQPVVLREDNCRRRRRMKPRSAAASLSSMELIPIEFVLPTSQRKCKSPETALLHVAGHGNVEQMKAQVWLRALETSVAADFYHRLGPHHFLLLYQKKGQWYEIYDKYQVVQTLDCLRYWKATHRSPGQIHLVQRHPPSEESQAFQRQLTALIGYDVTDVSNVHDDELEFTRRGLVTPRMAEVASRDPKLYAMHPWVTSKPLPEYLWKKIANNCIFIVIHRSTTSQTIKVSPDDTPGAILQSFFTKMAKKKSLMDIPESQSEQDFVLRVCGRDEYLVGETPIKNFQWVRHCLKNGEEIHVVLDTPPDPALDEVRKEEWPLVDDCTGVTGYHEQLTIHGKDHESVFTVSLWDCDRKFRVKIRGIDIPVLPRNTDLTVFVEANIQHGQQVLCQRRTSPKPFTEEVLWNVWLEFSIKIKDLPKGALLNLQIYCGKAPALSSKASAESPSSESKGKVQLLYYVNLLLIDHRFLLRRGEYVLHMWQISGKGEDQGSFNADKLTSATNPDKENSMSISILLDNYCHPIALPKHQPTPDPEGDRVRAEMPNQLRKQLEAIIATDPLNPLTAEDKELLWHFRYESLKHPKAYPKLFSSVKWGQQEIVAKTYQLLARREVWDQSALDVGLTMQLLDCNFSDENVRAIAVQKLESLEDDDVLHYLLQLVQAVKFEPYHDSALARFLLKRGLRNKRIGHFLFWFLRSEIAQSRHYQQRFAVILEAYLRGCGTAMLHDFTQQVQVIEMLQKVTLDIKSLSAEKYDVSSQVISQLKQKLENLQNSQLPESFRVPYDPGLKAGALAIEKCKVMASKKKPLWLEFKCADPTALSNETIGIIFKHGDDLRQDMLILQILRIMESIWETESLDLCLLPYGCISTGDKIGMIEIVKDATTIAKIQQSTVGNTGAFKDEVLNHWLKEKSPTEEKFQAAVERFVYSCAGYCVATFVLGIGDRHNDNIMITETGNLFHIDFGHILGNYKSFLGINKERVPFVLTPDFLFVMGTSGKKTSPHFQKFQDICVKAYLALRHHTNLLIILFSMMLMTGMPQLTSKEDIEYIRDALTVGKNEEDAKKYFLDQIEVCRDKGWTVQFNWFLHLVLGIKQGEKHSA
Experimental: PI 3-kinase assay. […] 10 μg of phosphatidylinositol (available from Sigma, St. Louis, Mo.) can then be added to each sample, and the incubation preferably continues on ice for an additional 15 minutes. ATP (final concentration 25 μM containing 30 μCi of [γ^32p]-ATP) can be added to each sample, and the reaction mixtures incubated at 37° C. for 10 minutes. Reactions can be terminated by adding 20 μl of 6 N hydrochloric acid. The sample is preferably vortexed, and lipids extracted into 300 μl of MeOH:CHCl3 (1:1) mixture. After mixing gently and spinning at 10,000×g for 5 minutes, 50 μl of the organic phase is preferably spotted onto a silica coated thin layer chromatography (TLC) plate (available from EMD, La Jolla, Calif.) and developed using a solvent system containing CHCl3:MeOH:H2O:NH4OH (60:47:11.3:2). The TLC plate can then be allowed to dry, and the bands analyzed using a Storm 860 phosphoimager (available from Amersham Biosciences, Sunnyvale, Calif.).
Lipids in such assays can be resolved by thin layer chromatography (TLC), and incorporated radiolabel quantitated using a phosphoimager.

Rh1 cells = experiment: Cell growth inhibition, Rh1 cells; type: cell-based, human; conditions: complete medium, six days, nuclei counted
Experimental: as §1, with “Cells in MN2E medium containing 5 μg/ml bovine fibronectin (available from Sigma, St. Louis, Mo.) are preferably plated, and allowed to attach overnight at 37° C. in a humidified, 5% CO2 atmosphere.” left out
Cell growth inhibition. […] Growth can be assessed after lysing cells, and counting nuclei. […]
The effect(s) of compounds, including phenoxazine compounds such as those listed in Table I, above, on cell growth can be evaluated in cell-based assays such as the exemplary assays described here. Rh1, Rh18 and/or Rh30 cells grown in complete medium can be exposed to graded concentrations of test compound (e.g., from 0.1 to 25 μM) for six days, at which time the cells can be lysed and their growth assessed by counting nuclei. […]

Rh18 cells = experiment: Determination of apoptosis (Annexin V-FITC/propidium iodide flow cytometry), Rh18 cells; conditions: Rh18, 7.5 μM, four days, n = 3
Experimental: (§4) Determination of apoptosis. An ApoAlert™ Annexin V-FITC Apoptosis kit (available from Clontech, Palo Alto, Calif.) can be used to evaluate the extent of apoptosis within cell populations. Cells (Rh1: 350,000 per 75-cm^2 flask; Rh18: 800,000 per 75-cm^2 flask; or Rh30: 500,000 per 75-cm^2 flask) are preferably grown overnight in complete medium. On day 1, cells are treated with DMSO (0.1%; vehicle control) or with a test compound (e.g., a phenoxazine or acridone compound). After 4 days, the cells are trypsinized, washed with PBS, and resuspended in 200 μl of binding buffer. Cells are then incubated with 10 μl of annexin V-FITC (final concentration, 1 μg/ml) and 500 ng of propidium iodide in a final volume of 410 μl. Cells are preferably incubated at room temperature in the dark for ten minutes before flow cytometric analysis with an FACSCalibur™ Flow Cytometry System (Becton Dickinson, San Jose, Calif.).
(§5) For instance, Rh1, Rh18 and/or Rh30 cells can be grown in complete medium with 0.1% DMSO (as a negative control) or with one or more test compounds, e.g., any of the phenoxazine compounds listed in Table I, above, including but not limited to the compounds 10B, 11B, 13B, 14B or 15B. […] Cells are then harvested, and the extent of apoptosis evaluated, e.g., by an ApoAlert™ (Clontech, Palo Alto, Calif.) flow cytometric assay.

Rh30 cells = experiment: Determination of apoptosis (Annexin V-FITC/propidium iodide flow cytometry), Rh30 cells; conditions: Rh30, 7.5 μM, four days, n = 3
Experimental: as §4, §5

Row | Compound | inhibition of AKT phosphorylation (AKT) | Inhibition (phosphorylation of AKT at Ser 473) (AKT) | inhibition of IGF-I induced phosphorylation of mTOR, rpS6 and p70S6 kinase [1] | PI 3-kinase activity [2] | IC50 (Rh1 cells) [µM] | Percentage of cells ± SD, Apoptotic (Rh18 cells) [%] | Percentage of cells ± SD, Apoptotic (Rh30 cells) [%] | Percentage of cells ± SD, Viable (Rh18 cells) [%] | Percentage of cells ± SD, Viable (Rh30 cells) [%]
1 | 10-[4′-[(β-hydroxyethyl)piperazino]butyl]-2-chlorophenoxazine [Compound 15B] | complete inhibition | ++++ (++++ ≈ 100% inhibition) | markedly inhibited | comparable to the untreated sample | 2 | 32.70 ± 8.99 | 88.67 ± 1.69 | – | –
2 | CCN(CC)CCCCN1c2ccccc2Oc2ccc(Cl)cc21 [Compound 10B, 10-[4′-(N-diethylamino)butyl]-2-chlorophenoxazine] | complete inhibition | ++++ (++++ ≈ 100% inhibition) | markedly inhibited | comparable to the untreated sample | 2 | 34.33 ± 6.13 | 43.00 ± 2.17 | 65.00 ± 2.94 | 56.67 ± 2.62
